Measurements reported in publication PMC2195872 (The Journal of Experimental Medicine, 2000).

Target: LTB4 receptor (Homo sapiens, UniProt Q15722)
Test: [3H]LTB4 competition radioligand binding on HEK293 cells
Type: cell-based

Chain of LTB4 receptor (Q15722 whole entry): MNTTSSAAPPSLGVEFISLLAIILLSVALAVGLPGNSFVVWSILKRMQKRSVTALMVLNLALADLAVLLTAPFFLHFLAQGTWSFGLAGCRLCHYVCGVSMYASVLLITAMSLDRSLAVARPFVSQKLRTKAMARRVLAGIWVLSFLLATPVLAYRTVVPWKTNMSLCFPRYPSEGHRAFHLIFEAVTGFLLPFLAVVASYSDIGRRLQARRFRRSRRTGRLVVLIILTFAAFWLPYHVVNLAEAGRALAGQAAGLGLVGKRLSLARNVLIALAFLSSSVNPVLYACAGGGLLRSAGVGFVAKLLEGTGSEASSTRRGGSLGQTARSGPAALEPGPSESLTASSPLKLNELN

IC50: ~500 nM
Structure (SMILES): CC/C=C\C/C=C\C[C@@H](O)/C=C/C=C/C=C\[C@@H](O)CCCC(=O)O [LTB5]
